Data published in US9976141B2, “Compositions and methods for inhibiting gene expression of Hif2alpha” (Arrowhead Madison Inc., priority 2015, dated 2018).
Where “and” joins values, the source holds several entries; their conditions need not be identical. Equal entries are not always repeated.

Columns and labels:
[1] = system: human (tumor) Hif2α (EPAS1) mRNA; test: Hif2α expression in RCC tumor bearing mice after single injection of RGD targeted conjugates, 72 h, RT-qPCR (Table 11); format: in vivo
Method: Female athymic nude mice were anesthetized with ˜3% isoflourane and placed in the right lateral decubitus position. A small, 0.5-1 cm, longitudinally abdominal incision in the left flank was made. Using a moist cotton swab, the left kidney was lifted out of the peritoneum and gently stabilized. Just before injection, a 1.0 ml syringe was filled with the cell/Matrigel mixture and a 27 gauge needle catheter was attached to the syringe tip. The filled syringe was then attached to a syringe pump (Harvard Apparatus, model PHD2000) and primed to remove air. The tip of a 27-gauge needle catheter attached to a syringe was inserted just below the renal capsule near the caudal pole and the tip of the needle was then carefully advanced cranially along the capsule 3-4 mm. A 10 μl aliquot of 2:1 (vol:vol) cell/matrigel mixture containing about 300,000 cells was slowly injected into the kidney parenchyma using a syringe pump. The needle was left in the kidney for 15-20 seconds to ensure the injection was complete. The needle was then removed from the kidney and a cotton swab was placed over the injection site for 30 seconds to prevent leakage of the cells or bleeding. The kidney was then gently placed back into the abdomen and the abdominal wall was closed. Serum was collected every 7-14 days after implantation to monitor tumor growth using a commercial SEAP assay kit. For most studies, tumor mice were used 5-6 weeks after implantation, when tumor measurements were typically around 4-8 mm.
In preparation for quantitative PCR, total RNA was isolated from tissue samples homogenized in TriReagent (Molecular Research Center, Cincinnati, Ohio) following the manufacturer's protocol. Approximately 500 ng RNA was reverse-transcribed using the High Capacity cDNA Reverse Transcription Kit (Life Technologies). For human (tumor) Hif2α (EPAS1) expression, pre-manufactured TaqMan gene expression assays for human Hif2α (Catalog #4331182) and CycA (PPIA) Catalog #: 4326316E) were used in biplex reactions in triplicate using TaqMan Gene Expression Master Mix (Life Technologies) or VeriQuest Probe Master Mix (Affymetrix). For human (tumor) VegFa (VEGFA) expression, pre-manufactured TaqMan gene expression assays for human VegFa (Catalog #4331182, Assay ID: Hs00900055) and CycA (Part#: 4326316E) were used in biplex reactions in triplicate using TaqMan Gene Expression Master Mix (Life Technologies) or VeriQuest Probe Master Mix (Affymetrix). Quantitative PCR was performed by using a 7500 Fast or StepOnePlus Real-Time PCR system (Life Technologies). The ΔΔCT method was used to calculate relative gene expression.
RGD targeted HiF2α-RNAi trigger delivery polymer conjugates were formed using polymer 126, 100A, or 006. The RNAi trigger, μg indicates the quantity of trigger reacted with polymer. The polymer was modified with the indicated RGD mimic and PEG modifying agents as described above. Kidney RCC tumor-bearing mice were generated as described and treated with a single tail vein injection of isotonic glucose (G1) or the indicated Hif2α RNAi trigger-delivery polymer conjugate. Mice were euthanized 72 h (day 4) after injection and total RNA was prepared from kidney tumor using Trizol reagent following manufacturer's recommendation. Relative HiF2α mRNA levels were determined by RT-qPCR as described and compared to mice treated with delivery buffer (isotonic glucose) only (Table 11).

[2] = system: human (tumor) Hif2α (EPAS1) mRNA; test: Hif2α knockdown in orthotopic RCC tumor bearing mice, single injection of RNAi trigger-delivery polymer conjugate, RT-qPCR (Table 7); format: in vivo; conditions: single tail vein injection, relative to isotonic glucose
Procedure, shortened: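 A single intravenous dose of Hif2α RNAi trigger–delivery polymer conjugate, or isotonic glucose vehicle, was given to nude mice with subcapsular A498-SEAP renal tumours (about 5–6 weeks old). At the indicated time, tumour RNA was assayed by biplex TaqMan qPCR against CycA, and relative expression was calculated by ΔΔCT versus vehicle.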

Q: Which “Relative Expression day 4 (Hif2α)” value ([1]; trigger 80 μg, polymer 126 280 μg, TFF, RGD-PEG8-HyNic 0.5×, PEG12-FCit-PABC-PNP) does the source give for “AD01214 (antisense TUUCAUGAAAUCGUUACGUTT; sense ACGUAACGAUUUCAUGAAAT; Hif2alpha RNAi agent antisense strand; modified_base 2,4,6,8,10,12,14,16,18 /mod_base = “2′-deoxy-2′-fluoro corresponding nucleoside”; modified_base 3,5,7,9,11,13,15,17,19 /mod_base = “2′-O-methyl corresponding nucleoside”; modified_base 21 /mod_base = “5′-phosphorothioate corresponding nucleotide”; Hif2alpha RNAi agent sense strand; modified_base 1,3,5,7,9,11,13,15,17,19 /mod_base = “2′-deoxy-2′-fluoro corresponding nucleoside”; modified_base 2,4,6,8,10,12,14,16,18 /mod_base = “2′-O-methyl corresponding nucleoside”; modified_base 20 /mod_base = “3′-3′-linked nucleotide”; modified_base 1 /mo)” here?
A: The value was 0.489.

Q: And the “Relative Expression day 4 (Hif2α)” value ([1]; trigger 80 μg, polymer 126 280 μg, RGD-PEG8-ACit-PABC-PNP 0.4×, PEG6-ACit-PABC-PNP)?
A: Its value is 0.360.

Q: And the “Relative Expression day 4 (Hif2α)” value ([1]; trigger 80 μg, polymer 126 280 μg, RGD-PEG8-ACitFP-NHS 1×, PEG6-ACit-PABC-PNP)?
A: The value was 0.288.

Q: What about the “Relative Expression day 4 (Hif2α)” value ([1]; trigger 80 μg, polymer 126 280 μg, RGD-PEG8-HyNic 0.5×, PEG12-FCitFP-TFP) of the same substance?
A: Its value is 0.210.

Q: And the “Relative Expression day 4 (Hif2α)” value ([1]; trigger 112.5 μg, polymer 006 300 μg, RGD-PEG8-HyNic, PEG12-ACit-PABC-PNP)?
A: Its value is 0.357.

Q: What about the “Relative Expression day 4 (Hif2α)” value ([1]; trigger 112.5 μg, polymer 100A 375 μg, TFF, RGD-PEG15-FCitFP-TFP 0.5×, no. 10.8, PEG12-ACit-PABC-PNP) of the same substance?
A: Its value is 0.193.

Q: And the “Relative Expression day 4 (Hif2α)” value ([1]; trigger 112.5 μg, polymer 100A 375 μg, TFF, RGD-PEG15-FCitFP-TFP 1×, no. 16.1, PEG12-ACit-PABC-PNP)?
A: Its value is 0.182.

Q: What about the “Relative Expression day 4 (Hif2α)” value ([1]; trigger 112.5 μg, polymer 100A 375 μg, TFF, RGD-PEG15-FCitFP-TFP 2×, no. 29.0, PEG12-ACit-PABC-PNP) of the same substance?
A: Its value is 0.182.

Q: What about the “Relative Expression day 4 (Hif2α)” value ([1]; trigger 112.5 μg, polymer 100A 375 μg, TFF, RGD-PEG19-FCitFP-TFP 0.5×, no. 10.7, PEG12-ACit-PABC-PNP) of the same substance?
A: Its value is 0.163.

Q: What about the “Relative Expression day 4 (Hif2α)” value ([1]; trigger 112.5 μg, polymer 100A 375 μg, TFF, RGD-PEG19-FCitFP-TFP 1×, no. 18.5, PEG12-ACit-PABC-PNP) of the same substance?
A: The value was 0.114.

Q: What about the “Relative Expression day 4 (Hif2α)” value ([1]; trigger 112.5 μg, polymer 100A 375 μg, TFF, RGD-PEG19-FCitFP-TFP 2×, no. 31.1, PEG12-ACit-PABC-PNP) of the same substance?
A: The value was 0.182.

Q: And the “Relative Expression day 4 (Hif2α)” value ([1]; trigger 112.5 μg, polymer 100A 375 μg, TFF, RGD-PEG20-FCitFP-TFP 0.125×, no. 1.9, PEG12-ACit-PABC-PNP)?
A: Its value is 0.169.

Q: What about the “Relative Expression day 4 (Hif2α)” value ([1]; trigger 112.5 μg, polymer 100A 375 μg, TFF, RGD-PEG20-FCitFP-TFP 0.25×, no. 3.4, PEG12-ACit-PABC-PNP) of the same substance?
A: The value was 0.168.

Q: What about the “Relative Expression day 4 (Hif2α)” value ([1]; trigger 112.5 μg, polymer 100A 375 μg, TFF, RGD-PEG20-FCitFP-TFP 0.5×, no. 6.6, PEG12-ACit-PABC-PNP) of the same substance?
A: Its value is 0.130.

Q: And the “Relative Expression day 4 (Hif2α)” value ([1]; trigger 112.5 μg, polymer 100A 375 μg, TFF, RGD-PEG20-FCitFP-TFP 1×, no. 12.7, PEG12-ACit-PABC-PNP)?
A: Its value is 0.121.

Q: What about the “Relative Expression day 4 (Hif2α)” value ([1]; trigger 112.5 μg, polymer 100A 375 μg, TFF, RGD-PEG20-FCitFP-TFP 1.5×, no. 20.3, PEG12-ACit-PABC-PNP) of the same substance?
A: Its value is 0.135.

Q: What about the “Relative Expression day 4 (Hif2α)” value ([1]; trigger 112.5 μg, polymer 100A 375 μg, RGD-PEG19-FCitFP-TFP 1×, PEG12-ACit-PABC-PNP) of the same substance?
A: The value was 0.195.

Q: And the “Relative Expression day 4 (Hif2α)” value ([1]; trigger 112.5 μg, polymer 100A 375 μg, RGD-PEG19-FCitFP-TFP 1×, PEG12-FCitFP-TFP)?
A: The value was 0.148 and 0.188.

Q: What about the “Relative Expression day 4 (Hif2α)” value ([1]; trigger 115 μg, polymer 100A 375 μg, RGD-PEG8-HyNic 0.5×, PEG12-FCitFP-TFP) of the same substance?
A: The value was 0.258.

Q: And the “Relative Expression day 4 (Hif2α mRNA in kidney tumor)” value ([2]; RNAi trigger 80 μg, polymer 126 400 μg)?
A: The value was 0.29.

Q: And the “Relative Expression day 4 (Hif2α mRNA in kidney tumor)” value ([2]; RNAi trigger 112.5 μg, polymer 006 300 μg)?
A: Its value is 0.36.
